According to BindingDB's records for doi:10.1016/j.bmcl.2008.04.044 (Wyeth Research, 2008):

Target: Insulin-like growth factor 1 receptor (Homo sapiens, UniProt P08069)
Assay: In Vitro Kinase Inhibition Assay
Details: pH 7.5; 22 °C
Protocol: Assays were performed in microtiter plates in reaction buffer containing biotinylated substrate, ATP, and purified kinase in the presence of test compounds. After incubation, product was detected using a homogeneous time-resolved fluorescence […] assay (LANCE).

Insulin-like growth factor 1 receptor, sequence (P08069 31-736 limits assumed): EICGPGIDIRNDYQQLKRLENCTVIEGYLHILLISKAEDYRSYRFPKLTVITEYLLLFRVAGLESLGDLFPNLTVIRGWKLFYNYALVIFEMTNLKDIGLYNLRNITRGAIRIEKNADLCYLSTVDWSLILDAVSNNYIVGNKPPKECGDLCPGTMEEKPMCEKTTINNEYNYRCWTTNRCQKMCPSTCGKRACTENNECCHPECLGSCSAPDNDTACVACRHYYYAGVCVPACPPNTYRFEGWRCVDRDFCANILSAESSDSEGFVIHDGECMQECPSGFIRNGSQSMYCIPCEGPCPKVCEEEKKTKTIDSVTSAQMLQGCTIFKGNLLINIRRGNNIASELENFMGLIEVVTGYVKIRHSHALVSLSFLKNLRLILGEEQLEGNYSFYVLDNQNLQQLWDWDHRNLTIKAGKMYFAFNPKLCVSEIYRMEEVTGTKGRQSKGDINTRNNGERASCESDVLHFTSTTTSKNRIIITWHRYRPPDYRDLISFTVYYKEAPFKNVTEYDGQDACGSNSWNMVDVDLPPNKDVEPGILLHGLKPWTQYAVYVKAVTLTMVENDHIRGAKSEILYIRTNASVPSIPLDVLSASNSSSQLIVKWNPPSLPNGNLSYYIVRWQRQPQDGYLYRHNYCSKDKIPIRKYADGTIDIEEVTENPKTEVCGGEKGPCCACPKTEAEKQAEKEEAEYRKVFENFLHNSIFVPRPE
Insulin-like growth factor 1 receptor, sequence (P08069 741-1367 limits assumed): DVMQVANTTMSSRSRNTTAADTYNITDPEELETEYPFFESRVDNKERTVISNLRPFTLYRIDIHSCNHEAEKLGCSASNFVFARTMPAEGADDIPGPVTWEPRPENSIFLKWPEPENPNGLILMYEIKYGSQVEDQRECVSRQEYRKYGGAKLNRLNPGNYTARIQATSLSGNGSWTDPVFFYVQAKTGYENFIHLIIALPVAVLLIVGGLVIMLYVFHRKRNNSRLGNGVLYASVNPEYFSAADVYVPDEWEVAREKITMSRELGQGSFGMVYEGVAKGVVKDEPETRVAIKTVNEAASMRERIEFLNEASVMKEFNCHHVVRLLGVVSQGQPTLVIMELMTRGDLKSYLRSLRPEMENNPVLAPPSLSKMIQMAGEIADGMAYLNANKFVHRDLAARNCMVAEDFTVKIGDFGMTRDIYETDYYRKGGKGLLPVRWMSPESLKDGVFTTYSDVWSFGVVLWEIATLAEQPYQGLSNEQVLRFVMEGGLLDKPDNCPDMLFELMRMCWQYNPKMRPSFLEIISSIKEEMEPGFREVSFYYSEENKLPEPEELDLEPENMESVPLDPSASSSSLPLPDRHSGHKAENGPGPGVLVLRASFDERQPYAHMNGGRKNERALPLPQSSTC

IC50 [µM]	Structure (SMILES)
> 10	O=C1NC(=O)c2ccc(Nc3cccc(Cl)c3)cc2C1=CNc1ccccc1 [(4Z)-6-[(3-chlorophenyl)amino]-4-[(phenylamino)methylidene]-1,2,3,4-tetrahydroisoquinoline-1,3-dione]
> 10	Nc1cccc(Nc2ccc3c(c2)C(=CNc2ccc(CN4CCCCC4)cc2)C(=O)NC3=O)c1 [(4Z)-6-[(3-aminophenyl)amino]-4-({[4-(piperidin-1-ylmethyl)phenyl]amino}methylidene)-1,2,3,4-tetrahydroisoquinoline-1,3-dione]
> 10	Cc1cccc(Nc2ccc3c(c2)C(=CNc2ccc(CN4CCCCC4)cc2)C(=O)NC3=O)c1 [(4Z)-6-[(3-methylphenyl)amino]-4-({[4-(piperidin-1-ylmethyl)phenyl]amino}methylidene)-1,2,3,4-tetrahydroisoquinoline-1,3-dione]
> 10	CCOC(=O)c1ccc(Nc2ccc3c(c2)C(=CNc2ccc(CN4CCCCC4)cc2)C(=O)NC3=O)cc1 [ethyl 4-{[(4Z)-1,3-dioxo-4-({[4-(piperidin-1-ylmethyl)phenyl]amino}methylidene)-1,2,3,4-tetrahydroisoquinolin-6-yl]amino}benzoate]
> 10	O=C1NC(=O)c2ccc(Nc3cccc(C(F)(F)F)c3)cc2C1=CNc1ccc(CN2CCCCC2)cc1 [(4Z)-4-({[4-(piperidin-1-ylmethyl)phenyl]amino}methylidene)-6-{[3-(trifluoromethyl)phenyl]amino}-1,2,3,4-tetrahydroisoquinoline-1,3-dione]

The next lines start with the compound.

Structure (SMILES)	IC50 [µM]
O=C1NC(=O)c2ccc(Nc3ccc4[nH]ccc4c3)cc2C1=CNc1ccc(CN2CCCCC2)cc1 [(4Z)-6-(1H-indol-5-ylamino)-4-({[4-(piperidin-1-ylmethyl)phenyl]amino}methylidene)-1,2,3,4-tetrahydroisoquinoline-1,3-dione]	> 10
COc1cccc(Nc2ccc3c(c2)C(=CNc2ccccc2)C(=O)NC3=O)c1 [(4Z)-6-[(3-methoxyphenyl)amino]-4-[(phenylamino)methylidene]-1,2,3,4-tetrahydroisoquinoline-1,3-dione]	> 10
CN(C)c1ccc(Nc2ccc3c(c2)C(=CNc2ccc(CN4CCCCC4)cc2)C(=O)NC3=O)cc1 [(4Z)-6-{[4-(dimethylamino)phenyl]amino}-4-({[4-(piperidin-1-ylmethyl)phenyl]amino}methylidene)-1,2,3,4-tetrahydroisoquinoline-1,3-dione]	> 10
COc1cc(Nc2ccc3c(c2)C(=CNc2ccc(CN4CCCCC4)cc2)C(=O)NC3=O)cc(C(F)(F)F)c1 [(4Z)-6-{[3-methoxy-5-(trifluoromethyl)phenyl]amino}-4-({[4-(piperidin-1-ylmethyl)phenyl]amino}methylidene)-1,2,3,4-tetrahydroisoquinoline-1,3-dione]	> 10
O=C1NC(=O)c2ccc(Nc3ccc(Cl)cc3)cc2C1=CNc1ccc(CN2CCCCC2)cc1 [(4Z)-6-[(4-chlorophenyl)amino]-4-({[4-(piperidin-1-ylmethyl)phenyl]amino}methylidene)-1,2,3,4-tetrahydroisoquinoline-1,3-dione]	> 10
